Data on three compounds can be found in US4921846A, “Novel 17-hetero substituted steroids” (Roussel Uclaf, priority 1987, dated 1990).

In one assay the test system is female rat. In words: Abortive activity in a female rat. The assay is classed as in vivo. The following applies: 3 mg/kg on day D9 of gestation, suspension in carboxymethyl cellulose containing 0.5% Tween; examined 72 hours after treatment. On the procedure: Day D1 of gestation was determined by the presence of spermatozoids in the vaginal smear and, on day D9 of the gestation, the product was administered in suspension in carboxymethyl cellulose containing 0.5% Tween. The animals were killed 72 hours after the treatment and the uterus was examined to determine the state of gestation.

Assay [1] deals with T1, Glucocorticoid receptor of the thymus of a rat (Rattus norvegicus, UniProt P06536).
T1 construct: The thymuses were removed and homogenized at 0° C; from tissue; host or cells: thymus of adrenalectomized male Sprague-Dawley rats, 105,000 g supernatant (cytosol)
T1 sequence (P06536 1-795): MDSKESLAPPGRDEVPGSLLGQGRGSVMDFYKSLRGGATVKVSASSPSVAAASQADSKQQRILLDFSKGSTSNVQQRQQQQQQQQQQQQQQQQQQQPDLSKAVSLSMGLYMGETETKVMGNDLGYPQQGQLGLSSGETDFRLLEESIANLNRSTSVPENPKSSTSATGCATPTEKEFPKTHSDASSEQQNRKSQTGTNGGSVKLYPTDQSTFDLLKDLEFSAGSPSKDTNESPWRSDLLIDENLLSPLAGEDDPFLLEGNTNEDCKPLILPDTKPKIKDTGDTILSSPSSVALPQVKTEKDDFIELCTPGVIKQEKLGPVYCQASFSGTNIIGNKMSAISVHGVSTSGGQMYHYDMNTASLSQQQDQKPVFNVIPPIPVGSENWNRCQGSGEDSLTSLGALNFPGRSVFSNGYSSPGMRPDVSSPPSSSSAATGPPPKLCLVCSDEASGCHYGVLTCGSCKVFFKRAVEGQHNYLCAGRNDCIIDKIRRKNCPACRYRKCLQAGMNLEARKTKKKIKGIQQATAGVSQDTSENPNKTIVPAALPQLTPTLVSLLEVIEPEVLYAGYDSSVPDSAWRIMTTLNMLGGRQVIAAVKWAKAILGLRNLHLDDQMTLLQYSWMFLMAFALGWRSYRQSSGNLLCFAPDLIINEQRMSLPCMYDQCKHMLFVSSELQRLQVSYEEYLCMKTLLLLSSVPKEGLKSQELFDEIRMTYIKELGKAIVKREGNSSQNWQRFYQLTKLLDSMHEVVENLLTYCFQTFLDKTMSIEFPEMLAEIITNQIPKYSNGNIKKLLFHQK
The assay is described as follows: Glucocorticoid receptor of the thymus of a rat, relative bond affinity. The assay is classed as binding. The settings on record: for relative bond affinity (RBA), Glucocorticoid: RBA=100(CH)/(CX), reference dexamethasone. The method, then: Sprague-Dawley EPOS male rats weighting 160 to 200 g were suprarenalectomized and, 4 to 8 days after this removal, the animals were killed. The thymuses were removed and homogenized at 0° C. in a buffer Tris 10 mM, saccharose 0.25M, dithiothreitol 2 mM, HCl, pH 7.4, with Potter polytetrafluoroethylene-dish (1 g of tissue per 10 ml of TS). The homogenate was then ultra-centrifuged (105,000 g×90 minutes) at 0° C. Aliquots of the supernatant thus obtained were incubated at 0° C. for a time t, with a constant concentration (T) of tritiated dexamethasone in the presence of increasing concentrations (0-2500×10^-9 M) either of cold dexamethasone, or of cold product under test. The concentration of bonded tritiated […] (B) was then measured in each incubate by the technique of adsorption on dextran carbon.
(§1) The calculation of the relative bond affinity (RBA) was the same for all the receptors. The following 2 curves were drawn: the percentage of bonded tritiated hormone B/T as a function of the logarithm of the concentration of the cold reference hormone and B/T as a function of the logarithm of the concentration of the cold product under test. The straight line of the equation I50 =(B max/T+B min/T)/2 was determined. B/T max = percentage of bonded tritiated hormone for an incubation of this hormone tritiated at a concentration (T). B/T min = percentage of bonded tritiated hormone for an incubation of this tritiated hormone at a concentration (T) in the presence of a large excess of cold hormone (2500×10^-9 M). The intersections of the straight line I50 and the curves enables the concentrations of cold reference hormone (CH) and of cold product under test (CX) which inhibit by 50% the bond of the tritiated hormone on the receptor to be evaluated. The relative bond affinity (RBA) of the product tested was determined by the equation: […]

In assay [2] the target is T2, Progestogene receptor of the uterus of a rabbit (Oryctolagus cuniculus, UniProt P06186).
T2 construct: The uteri were removed, weighted and homogenized at 0° C; from tissue; host or cells: uterus of estradiol-treated impuberal female rabbits, 105,000 g supernatant (cytosol)
T2 sequence (P06186 1-930): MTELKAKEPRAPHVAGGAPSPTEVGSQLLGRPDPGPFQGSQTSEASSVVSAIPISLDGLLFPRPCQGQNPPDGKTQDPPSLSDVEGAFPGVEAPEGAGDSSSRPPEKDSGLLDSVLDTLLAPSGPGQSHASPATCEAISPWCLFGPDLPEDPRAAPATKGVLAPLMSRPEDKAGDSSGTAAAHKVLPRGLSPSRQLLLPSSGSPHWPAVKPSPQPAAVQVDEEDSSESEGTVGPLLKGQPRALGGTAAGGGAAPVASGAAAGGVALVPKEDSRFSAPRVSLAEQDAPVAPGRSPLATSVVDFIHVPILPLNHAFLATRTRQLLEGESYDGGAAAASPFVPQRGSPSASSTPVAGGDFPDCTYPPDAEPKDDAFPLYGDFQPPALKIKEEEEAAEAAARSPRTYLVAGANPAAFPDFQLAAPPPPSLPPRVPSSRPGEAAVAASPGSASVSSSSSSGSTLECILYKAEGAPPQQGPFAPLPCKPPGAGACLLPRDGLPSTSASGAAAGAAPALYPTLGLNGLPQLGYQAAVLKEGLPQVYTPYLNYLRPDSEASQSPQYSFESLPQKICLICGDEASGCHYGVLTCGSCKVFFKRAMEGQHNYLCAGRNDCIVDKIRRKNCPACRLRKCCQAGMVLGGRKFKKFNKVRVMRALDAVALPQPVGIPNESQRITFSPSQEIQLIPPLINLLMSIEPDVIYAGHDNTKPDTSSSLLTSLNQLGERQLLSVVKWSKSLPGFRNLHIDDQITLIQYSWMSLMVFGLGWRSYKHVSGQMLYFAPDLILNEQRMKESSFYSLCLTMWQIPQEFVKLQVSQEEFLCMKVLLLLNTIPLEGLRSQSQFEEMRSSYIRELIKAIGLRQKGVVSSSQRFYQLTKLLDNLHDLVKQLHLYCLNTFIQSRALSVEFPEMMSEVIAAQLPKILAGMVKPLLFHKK
In words: Progestogene receptor of the uterus of a rabbit, relative bond affinity. The assay is classed as binding. The following applies: for relative bond affinity (RBA), Progestogene: RBA=100(CH)/(CX). The method, then: Impuberal female rabbits of about 1 kg received a cutaneous application of […] of estradiol and, 5 days after this treatment, the animals were killed. The uteri were removed, weighted and homogenized at 0° C. in a Potter teflon-dish in a buffered solution TS (Tris 10 mM, saccharose 0.25M, HCl pH 7.4) (1 g of tissue per 50 ml of TS). The homogenate was then ultra-centrifuged (105,000 g×90 minutes) at 0° C. and aliquots of the supernatant thus obtained were incubated at 0° C. for a time t, with a constant concentration (T) of tritiated product R (17,21-dimethyl-19-nor-Δ^4,9 -pregnadien-3,20-dione) in the presence of increasing concentrations (0-2500×10^-9 M) either of cold R, or of cold progesterone or of the cold product under test. The concentration of bonded tritiated R (B) […] by the technique of adsorption on dextran carbon.
as §1

Assay [3] has as its system Thymocytes of suprarenalectomized rats. The assay is described as follows: Antiglucocorticoid activity: tritiated uridin incorporation in thymocytes with dexamethasone. The settings on record: Rattus norvegicus, Thymocyte, 5.10^-8 M dexamethasone, 37° C., read-out: % inhibition of the effect of dexamethasone; for inhibition at 1 µM: product at 10^-6 M; for inhibition at 0.1 µM: product at 10^-7 M; for inhibition at 0.01 µM: product at 10^-8 M. The assay is classed as cell-based. On the procedure: The technique used was derived from the method described by Dausse et al in Molecular Pharmacology, Vol. 13, p.
Thymocytes of suprarenalectomized rats were incubated at 37° C. for 3 hours in a nutritive medium containing 5.10^-8 M of dexamethasone in the presence or absence of a product test at various concentrations. Tritiated uridin was added and incubation was continued for one hour. The incubates were cooled, treated with a 5% solution of trichloroacetic acid, filtered on Whatman GF/A paper and washed three time with a 5% solution of trichloroacetic acid. The radioactivity retained by the filter was determined. Glucocorticoids and, in particular dexamethasone, cause a decrease in the incorporation of tritiated uridin.

For `CN(C)c1ccc([C@H]2C[C@@]3(C)[C@@H](CC[C@@]34CCO4)[C@@H]3CCC4=CC(=O)CCC4=C32)cc1` [Example 1, (17R) 11β-[4-(dimethylamino)-phenyl]-spiro-(Δ^4,9-estradien-17,2'-oxetan)-3-one], the “abortion (state of gestation)” value in the assay with female rat was “complete abortion in all the animals of the group”. The “relative bond affinity (RBA), Glucocorticoid” value in assay [1] (Incubation Time at 0° C.: 2 H) was found to be 126; in assay [1] (Incubation Time at 0° C.: 4 H), 43. For the same compound, in assay [1] (conclusion), the “affinity for glucocorticoid receptors (in words)” value is “marked affinity”. In addition, the “relative bond affinity (RBA), Progestogene” value in assay [2] (Incubation Time at 0° C.: 2 H) turned out to be 93; in assay [2] (Incubation Time at 0° C.: 4 H), 415. Moreover, the “affinity for progestogen receptors (in words)” value in assay [2] (conclusion) was “marked affinity”. Moreover, the inhibition at 1 µM in assay [3] stood at 122%. Also, the inhibition at 0.1 µM in assay [3] worked out at 55%. The inhibition at 0.01 µM in assay [3] was 16%.
With `CSc1ccc([C@H]2C[C@@]3(C)[C@@H](CC[C@@]34CCO4)[C@@H]3CCC4=CC(=O)CCC4=C32)cc1` [Example 2, (17R) 11β-[4-(methylthio)-phenyl]-spiro-(Δ^4,9-estradient-17,2'-oxetan)-3-one], in assay [1] (Incubation Time at 0° C.: 2 H), the “relative bond affinity (RBA), Glucocorticoid” value was 56. The “relative bond affinity (RBA), Glucocorticoid” value in assay [1] (Incubation Time at 0° C.: 4 H) is 22. The “relative bond affinity (RBA), Progestogene” value in assay [2] (Incubation Time at 0° C.: 2 H) came to 23. The “relative bond affinity (RBA), Progestogene” value in assay [2] (Incubation Time at 0° C.: 4 H) is 67. Also, in assay [3], the inhibition at 1 µM is 76%, the inhibition at 0.1 µM is 27% and the inhibition at 0.01 µM is 10%.
With `CN(C)c1ccc([C@H]2C[C@@]3(C)[C@@H](CC[C@@]34CCCCO4)[C@@H]3CCC4=CC(=O)CCC4=C32)cc1` [Example 3, (17S) 11β-[4-(dimethylamino)-phenyl]-3',4',5',6'-tetrahydro spiro (Δ^4,8-estradien-17,2'-(2H)pyran)-3-one], the figures for the “relative bond affinity (RBA), Glucocorticoid” value in assay [1] (Incubation Time at 0° C.: 2 H) and in assay [1] (Incubation Time at 0° C.: 4 H) were 23 and 24, respectively. The “relative bond affinity (RBA), Progestogene” value in assay [2] (Incubation Time at 0° C.: 2 H) is 24; in assay [2] (Incubation Time at 0° C.: 4 H) it was 157. Also, in assay [3], the inhibition at 1 µM stood at 93%. In assay [3], the inhibition at 0.1 µM was 22%. In addition, the inhibition at 0.01 µM in assay [3] was determined as 7%.
